34 compounds from patent US20260234150A1, “COMPOUND FOR INHIBITING NLRP3, PREPARATION METHOD, AND USE” (DOVETREE MEDICINES UNUS, INC., priority 2023, published 2026) can be followed below.

The structures appear in SMILES notation.

The target in data set [1] is T1, His6-Flag-TEV-NLRP3 (134-1036) (Homo sapiens, UniProt Q96P20).
T1 construct: fused on or other part: N-terminal His6 tag, Flag tag and TEV cleavage site
Briefly: NLRP3 fluorescence polarization (FP) binding assay, competition with probe NP3-301. To be noted: competition with NP3-301 for binding to NLRP3 (134-1036), 30 nM protein. How it is done:
This experiment uses fluorescence polarization technology to detect and evaluate the binding assay.
The fluorescent probe used in this assay is the compound NP3-301 in the Journal of Molecular Biology (2021) 433, 167309, which was synthesized with reference to this literature.
His6-Flag-TEV-NLRP3 (134-1036) protein (SEQ NO. 1) was purchased from Kaihuiruizhi Biotech (Shanghai) Co., Ltd. (ChemPartner), and was customed for expression.
Prepare 1× assay buffer: 50 mM Hepes, pH 7.4, 150 mM NaCl, 2.5 mM MgCl2, 0.005% Tween-20, 1 mM TCEP, 100 μM ATP.
First, 2.5 μL of 4× compound solution was added to a black shallow 384-well plate (Greiner, 784076), the shallow well plate was sealed, and centrifuged at 1000 rpm for 1 min; then 2× NLPR3 protein solution (final concentration of 30 nM) was added, the shallow well plate was sealed, centrifuged at 1000 rpm for 1 min, and incubated at room temperature for 60 min. Finally, 2.5 μL of 4× NP3-301 (final concentration of 0.5 nM) was added, the shallow well plate was sealed, centrifuged at 1000 rpm for 1 min, and incubated at room temperature for 30 min. Envision was used to read the fluorescence polarization values of λex=485+20 nm and kem=535+25 nm. GraphPad Prism 9.5.0 was used to analyze the data, and the IC50 value of the competition between the compound and NP3-301 for binding to His6-Flag-TEV-NLRP3 (134-1036) was fitted by four-parameter logistic. The compounds of the present disclosure have good NLRP3 binding activity, and the test results of some representative compounds are shown in Table 1.
Background: Polarisation of emitted light reports the rotation of a fluorescent probe.

The test system of data set [2] is IL-1β secretion of THP-1 cells. Briefly: Effect of NLRP3 inhibitor on IL-1β secretion of THP-1 cells (AlphaLISA). It is filed as cell-based. As to conditions: Homo sapiens; PMA, LPS and Nigericin stimulated THP-1 cells, IL-1β in supernatant; read-out: IC50 (nM), THP-1 cells to detect NLRP3 inhibitors. How it is done:
This experiment used the PerkinElmer AlphaLISA_human_IL1β kit (AL220 C/F). The detection buffer was RPMI-1640+10FBS. AlphaLISA Immunoassay Buffer, AlphaLISA Anti-IL1β Acceptor beads, Streptavidin (SA)-coated Donor beads, and Biotinylated Antibody Anti-IL1β were all included in the kit.
The density of THP1 cells was adjusted to 4×10^5 cells/mL, PMA (final concentration 50 nM) was added, inoculated into 96-well flat-bottom plates at 200 μL/well, and stimulated overnight at 37° C., 5% CO2 (try to <16h). The next day, the supernatant was discarded, and the flat washed twice with DPBS ([…]/time). Then LPS solution (final concentration of 100 ng/ml) was added at 198 μL/well, incubated at 37° C., 5% CO2 for 3h. 1 μL of the corresponding concentration of compounds was added to each well according to the experimental MAP, incubated at 37° C., 5% CO2 for 1 h. 1 μL Nigericin (final concentration of […]) was added to each well, incubated overnight at 5% CO2 (>18h). On the third day, 5 μL of supernatant was taken, diluted 20 times, and the content of IL-Iβ in the supernatant was detected by Human Interleukin 1 beta (IL1β) Kit. Envision was used to read the AlphaLISA test value of Ex=680/[…]. GraphPad Prism 9.5.0 was used to analyze the data, and the IC50 value of the compound for IL-Iβ antagonism was fitted by four-parameter Logistic.

For data set [3], the system named is iodoacetic acid (MIA)-induced SD rat knee osteoarthritis model. Briefly: Iodoacetic acid (MIA)-induced SD rat knee osteoarthritis model. As to conditions: 30 mg/kg orally once a day from Day 7 to Day 42. The data set is classed as in vivo, SD rats. How it is done:
Purpose: Evaluate the efficacy of MCC950 (Positive reference compound) and compound 111 of the present disclosure on iodoacetic acid (MIA)-induced SD rat knee osteoarthritis model.
Experimental materials: Experimental male SD rats, 4 weeks old.
Model induction began after the experimental animals were adapted to the animal environment for 7 days. Day 0, the rats were anesthetized, the hair around the left knee joint was removed, and the skin was disinfected. The left leg was flexed 90° to expose the patellar platform. The depression in the middle of the platform was touched by hand to find the femoral condyle, patella and ligament. The syringe needle was inserted from the bottom of the patella on both sides of the patellar ligament to the direction of the femoral condyle. When a clear sense of empty space was felt, 50 μL of iodoacetic acid solution was injected. Day 7 Grouping was performed according to the width of the knee joint on the induced side. The groups were: normal control group (healthy control without modeling, 5% DMSO+10% Solutol+85% Saline), model blank control group (5% DMSO+10% Solutol+85% Saline), MCC950 30 mg/kg, and compound 111 of the present disclosure 30 mg/kg. Starting from Day 7, the normal control group and the model blank control group were given the solvent (5% DMSO+10% Solutol+85% Saline) orally once a day, and the other groups were given the corresponding compounds orally once a day until the end of the administration on Day 42. The knee joint width and body weight of the rats were measured once on Day 7, 14, 21, 28, 35, and 42.

T1 sequence (Q96P20 134-1036 limits assumed): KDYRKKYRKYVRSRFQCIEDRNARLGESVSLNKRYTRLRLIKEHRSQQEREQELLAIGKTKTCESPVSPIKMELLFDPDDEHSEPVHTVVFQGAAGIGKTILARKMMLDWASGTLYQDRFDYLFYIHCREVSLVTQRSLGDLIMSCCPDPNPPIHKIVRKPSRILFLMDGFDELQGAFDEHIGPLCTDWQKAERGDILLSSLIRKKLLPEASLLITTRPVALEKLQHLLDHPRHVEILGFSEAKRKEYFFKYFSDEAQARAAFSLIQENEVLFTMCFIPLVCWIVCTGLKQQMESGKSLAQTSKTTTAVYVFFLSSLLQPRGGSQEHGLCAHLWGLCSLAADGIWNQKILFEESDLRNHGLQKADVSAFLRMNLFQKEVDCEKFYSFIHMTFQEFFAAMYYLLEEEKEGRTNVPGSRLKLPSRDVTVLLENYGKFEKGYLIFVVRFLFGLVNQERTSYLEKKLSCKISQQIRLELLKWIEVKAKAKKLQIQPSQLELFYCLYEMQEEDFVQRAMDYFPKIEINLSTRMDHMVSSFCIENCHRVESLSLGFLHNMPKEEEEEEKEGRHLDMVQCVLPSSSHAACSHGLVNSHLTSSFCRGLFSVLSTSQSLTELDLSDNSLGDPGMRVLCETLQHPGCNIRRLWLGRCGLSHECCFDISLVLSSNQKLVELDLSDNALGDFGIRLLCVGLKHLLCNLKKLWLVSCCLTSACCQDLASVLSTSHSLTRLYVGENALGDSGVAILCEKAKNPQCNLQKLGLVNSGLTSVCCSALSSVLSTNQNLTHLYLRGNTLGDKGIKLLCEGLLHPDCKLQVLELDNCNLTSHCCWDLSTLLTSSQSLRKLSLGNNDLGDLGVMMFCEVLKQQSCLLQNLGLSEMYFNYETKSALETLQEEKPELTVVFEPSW

The IC50 is the midpoint of a concentration-inhibition curve. As to `Cc1cc(C(F)(F)F)cc(O)c1-c1ccc2oc(NC[C@@H]3COCCN3C(=O)C3CC3)nc2n1` [Compound 257], the IC50 is at most 100 nM in data set [1] and below 50 nM in data set [2].

With `Cc1cc(C(F)(F)F)cc(O)c1-c1ccc2oc(NC[C@@H]3COCCN3S(=O)(=O)C3CC3)nc2n1` [Compound 260], the IC50 was at most 100 nM in data set [1] and below 50 nM in data set [2].

For the compound `Cc1cc(C(F)(F)F)cc(O)c1-c1ccc2oc(N3CCOC[C@H]3C)nc2n1` [Compound 371], the IC50 was at most 100 nM in data set [1] and 50 to 100 nM in data set [2].

As for `Oc1cc(Cl)cc(O)c1-c1ccc2oc(N3CCOCC3)nc2n1` [Compound 376], the IC50 in data set [1] is at most 100 nM; in data set [2], below 50 nM.

In the case of `Cc1cc(C(F)(F)F)cc(O)c1-c1ccc2oc(N3CC4CCC(C3)O4)nc2n1` [Compound 381], the IC50 in data set [1] is at most 100 nM; in data set [2] it was 100 to 500 nM.

Regarding `Cc1cc(Cl)cc(O)c1-c1ccc2oc(N3CCS(=O)(=O)CC3)nc2n1` [Compound 387], the figures for the IC50 in data set [1] and in data set [2] were at most 100 nM and 50 to 100 nM, respectively.

Consider `CCS(=O)(=O)N1CCN(c2nc3nc(-c4c(C)cc(C(F)(F)F)cc4O)ccc3o2)CC1` [Compound 388], for which the IC50 in data set [1] is at most 100 nM; in data set [2] it was 50 to 100 nM.

On to `Cc1cc(C(F)(F)F)cc(O)c1-c1ccc2oc(N3CCN(S(C)(=O)=O)CC3)nc2n1` [Compound 390], for which the IC50 in data set [1] was at most 100 nM; in data set [2] it was below 50 nM.

As to `Cc1cc(C(F)(F)F)cc(O)c1-c1ccc2oc(N3CCN(S(=O)(=O)C4CC4)CC3)nc2n1` [Compound 392], the IC50 in data set [1] was at most 100 nM; in data set [2] it was below 50 nM.

As to `CCS(=O)(=O)N1CCN(c2nc3nc(-c4c(C)cc(C(F)(F)F)cc4O)ccc3o2)C[C@@H]1C` [Compound 394], the figures for the IC50 in data set [1] and in data set [2] were at most 100 nM and 50 to 100 nM, respectively.

For `CCN1C[C@H](F)C[C@@H](Nc2nc3nc(-c4c(C)cc(C(F)(F)F)cc4O)ccc3o2)C1` [Compound 397], the IC50 in data set [1] was at most 100 nM; in data set [2], 100 to 500 nM.

On to `Cc1cc(C(F)(F)F)cc(O)c1-c1ccc2oc(N[C@@H]3CCCN(C4CC4)C3)nc2n1` [Compound 399], for which the IC50 in data set [1] was at most 100 nM; in data set [2], below 50 nM.

In the case of `Cc1cc(C(F)(F)F)cc(O)c1-c1ccc2oc(N[C@@H]3CCCN(C(C)C)C3)nc2n1` [Compound 400], the IC50 in data set [1] was at most 100 nM; in data set [2], below 50 nM.

As for `Cc1cc(C(F)(F)F)cc(O)c1-c1ccc2oc(N[C@@H]3CCCN(CCO)C3)nc2n1` [Compound 404], the results for the IC50 in data set [1] and in data set [2] were at most 100 nM and below 50 nM, respectively.

As to `Cc1cc(C(F)(F)F)cc(O)c1-c1ccc2oc(NC[C@@H](C)O)nc2n1` [Compound 413], the IC50 in data set [1] was at most 100 nM; in data set [2], 50 to 100 nM.

As to `Cc1cc(C(F)(F)F)cc(O)c1-c1ccc2nc(N3CCS(=O)(=O)CC3)nn2n1` [Compound 422], the IC50 in data set [1] was at most 100 nM; in data set [2], 100 to 500 nM.

In the case of `Cc1cc(C(F)(F)F)cc(O)c1-c1ccc2nc(N3CCOCC3)nn2n1` [Compound 423], the IC50 was at most 100 nM in data set [1] and 100 to 500 nM in data set [2].

With `Cc1cc(C(F)(F)F)cc(O)c1-c1cc(C)c2nc(N3CCOCC3)nn2n1` [Compound 424], the IC50 in data set [1] was at most 100 nM; in data set [2], below 50 nM.

For the compound `Cc1cc(C(F)(F)F)cc(O)c1-c1ccn2nc(N3CCOCC3)nc2n1` [Compound 426], the IC50 in data set [1] was at most 100 nM; in data set [2] it was below 50 nM.

Take `CCN1CCC[C@@H](Nc2nc3ccc(-c4c(C)cc(C(F)(F)F)cc4O)nn3n2)C1` [Compound 439]: the half-maximal inhibitory concentration (IC50) is at most 100 nM in data set [1] and below 50 nM in data set [2].

With `Cc1cc(C(F)(F)F)cc(O)c1-c1cc(C)n2nc(N3CCOCC3)nc2n1` [Compound 440], the IC50 in data set [1] is at most 100 nM; in data set [2], 50 to 100 nM.

`CC(=O)NC[C@@H]1COCCN1c1nc2nc(-c3c(C)cc(C(F)(F)F)cc3O)cc(C)n2n1` [Compound 441]: the IC50 in data set [1] was at most 100 nM; in data set [2], below 50 nM.

As to `CC(=O)NC[C@@H]1COCCN1c1nc2c(C)cc(-c3c(C)cc(C(F)(F)F)cc3O)nn2n1` [Compound 442], the half-inhibitory concentration (IC50) is at most 100 nM in data set [1] and below 50 nM in data set [2].

In the case of `Cc1cc(C(F)(F)F)cc(O)c1-c1cc(C)n2nc(N[C@@H]3CCCN(C)C3)nc2n1` [Compound 443], the IC50 in data set [1] was at most 100 nM; in data set [2], below 50 nM.

With `Cc1cc(C(F)(F)F)cc(O)c1-c1ccn2nc(N[C@@H]3CCCN(C)C3)nc2n1` [Compound 444], the values for the IC50 in data set [1] and in data set [2] were at most 100 nM and below 50 nM, respectively.

Turning to `Cc1cc(C(F)(F)F)cc(O)c1-c1ccc2nc(N[C@@H]3CCCN(C)C3)nn2n1` [Compound 445], the IC50 in data set [1] is at most 100 nM; in data set [2], below 50 nM.

Consider `Cc1cc(C(F)(F)F)cc(O)c1-c1cc(C)c2nc(N[C@@H]3CCCN(C)C3)nn2n1` [Compound 446], for which the 50% inhibitory concentration (IC50) in data set [1] was at most 100 nM; in data set [2], below 50 nM.

`CCN1CCC[C@@H](Nc2nc3c(C)cc(-c4c(C)cc(C(F)(F)F)cc4O)nn3n2)C1` [Compound 447]: the IC50 in data set [1] was at most 100 nM; in data set [2] it was below 50 nM.

For `CCN1CCC[C@@H](Nc2nc3nc(-c4c(C)cc(C(F)(F)F)cc4O)ccn3n2)C1` [Compound 448], the results for the IC50 in data set [1] and in data set [2] were at most 100 nM and below 50 nM, respectively.

`CC(=O)N1CCOC[C@H]1CNc1nc2nc(-c3c(C)cc(C(F)(F)F)cc3O)cc(C)c2o1` [Compound 451]: the results for the 50% inhibitory concentration (IC50) in data set [1] and in data set [2] were at most 100 nM and 50 to 100 nM, respectively.

Turning to `Cc1cc(C(F)(F)F)cc(O)c1-c1cc(C)c2nc(N[C@@H]3CCCN(CCO)C3)nn2n1` [Compound 456], the IC50 in data set [1] is at most 100 nM; in data set [2] it was below 50 nM.

With `Cc1cc(C(F)(F)F)cc(O)c1-c1cc(C)n2nc(N[C@H]3CCCN(CCO)C3)nc2n1` [Compound 460], the results for the IC50 in data set [1] and in data set [2] were at most 100 nM and below 50 nM, respectively.

Take `CCN1CCC[C@H](Nc2nc3nc(-c4c(C)cc(C(F)(F)F)cc4O)cc(C)n3n2)C1` [Compound 462]: the IC50 was at most 100 nM in data set [1] and below 50 nM in data set [2].

Consider `CC(C)(O)c1coc(S(=O)(=O)NC(=O)Nc2c3c(cc4c2CCC4)CCC3)c1` [MCC950], for which the “body weight of the rats” value in data set [3] is “without affecting the body weight of the rats”. The “widening of the knee joints (knee joint width)” value in data set [3] (compared with model blank control group, 21 days to 42 days after modeling) is recorded as “could significantly inhibit the widening of the knee joints”.
